In the assay the test system is male white mice. Description: Hypnosis effect taking orally (lost righting reflex half minute). In kind it is in vivo. The note with it: for The sleep animals: 30 mg/kg, n=25. As to the method: The male white mice (weighing 18-22 g) were divided into groups at random. Every group had twenty five. Experimental group douched the stomach with the compound by 0.08, 0.3, 0.4 ml/10 g, pentobabital sodium 30 mg/kg, the control group gave the same volumn saline. Then put them into the constant temperature infant cabinet at 37° C. We observed the mumber of the mice sleep. The standard was the half minute continous lost righting reflexs (table 3 was the result). […] The compound wares had hypnosis effect.

`CCCC(C)C1(CC)C(=O)N=C([O-])NC1=O.[Na+]` (centres unmarked) [Pentobabital sodium] displayed a The sleep animals (5′) of 20TT, a The sleep animals (30′) of 25TT, a The sleep animals (60′) of 21TT and a The sleep animals (90′) of 13. Further, the “Hypnosis effect (in words)” value (30 ml/kg as printed in text, mice) was “let them all sleep”.

(Values after patent publication US20050142230A1, “Pharmic activity and manufacturing method of the production produced by six kinds of plant compound” (priority 2003, published 2005).)
